Experimental data taken from ChEMBL document CHEMBL1909046, “DrugMatrix in vitro pharmacology data”.

Key:
[1] = molecular target: T1, Progesterone receptor (Bos taurus, UniProt Q690N0); assay: DRUGMATRIX: Progesterone radioligand binding (ligand: [3H] R-5020); format: tissue-based, Uterus; conditions: Not Active = under 50% inhibition at 10 µM
T1 sequence (Q690N0 whole entry): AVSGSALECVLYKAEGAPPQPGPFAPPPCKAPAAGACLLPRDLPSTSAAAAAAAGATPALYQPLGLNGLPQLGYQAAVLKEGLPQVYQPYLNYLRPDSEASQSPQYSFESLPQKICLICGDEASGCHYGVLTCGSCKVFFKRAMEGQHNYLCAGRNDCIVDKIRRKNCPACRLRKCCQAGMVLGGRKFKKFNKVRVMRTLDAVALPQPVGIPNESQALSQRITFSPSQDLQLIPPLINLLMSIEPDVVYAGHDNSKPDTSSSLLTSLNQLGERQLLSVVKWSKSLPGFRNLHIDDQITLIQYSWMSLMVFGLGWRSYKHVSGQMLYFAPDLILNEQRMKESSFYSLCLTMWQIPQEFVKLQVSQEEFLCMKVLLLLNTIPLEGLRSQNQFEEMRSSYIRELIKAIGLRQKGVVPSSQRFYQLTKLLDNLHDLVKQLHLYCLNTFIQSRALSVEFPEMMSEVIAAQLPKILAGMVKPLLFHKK

[2] = molecular target: T2, B2 bradykinin receptor (Homo sapiens, UniProt P30411); format: cell membranes, Membrane; conditions: chem-1; note: in other assays of this panel Not Active means under 50% inhibition at 10 µM
T2 sequence (P30411 whole entry): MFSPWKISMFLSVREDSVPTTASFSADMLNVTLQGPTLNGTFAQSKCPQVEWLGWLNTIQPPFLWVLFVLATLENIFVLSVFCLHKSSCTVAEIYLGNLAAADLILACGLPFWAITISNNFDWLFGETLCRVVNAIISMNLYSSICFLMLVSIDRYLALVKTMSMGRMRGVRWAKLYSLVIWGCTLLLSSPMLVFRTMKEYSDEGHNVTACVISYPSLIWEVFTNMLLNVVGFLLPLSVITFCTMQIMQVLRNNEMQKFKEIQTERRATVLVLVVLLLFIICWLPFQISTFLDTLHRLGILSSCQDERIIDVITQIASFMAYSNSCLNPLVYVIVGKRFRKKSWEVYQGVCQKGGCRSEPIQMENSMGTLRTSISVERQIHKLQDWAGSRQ

[3] = molecular target: Cytochrome P450 3A4 (Homo sapiens, UniProt P08684); conditions: bti-tn-5b1-4; note: in other assays of this panel Not Active means under 50% inhibition at 10 µM
Chain of Cytochrome P450 3A4 (P08684 whole entry): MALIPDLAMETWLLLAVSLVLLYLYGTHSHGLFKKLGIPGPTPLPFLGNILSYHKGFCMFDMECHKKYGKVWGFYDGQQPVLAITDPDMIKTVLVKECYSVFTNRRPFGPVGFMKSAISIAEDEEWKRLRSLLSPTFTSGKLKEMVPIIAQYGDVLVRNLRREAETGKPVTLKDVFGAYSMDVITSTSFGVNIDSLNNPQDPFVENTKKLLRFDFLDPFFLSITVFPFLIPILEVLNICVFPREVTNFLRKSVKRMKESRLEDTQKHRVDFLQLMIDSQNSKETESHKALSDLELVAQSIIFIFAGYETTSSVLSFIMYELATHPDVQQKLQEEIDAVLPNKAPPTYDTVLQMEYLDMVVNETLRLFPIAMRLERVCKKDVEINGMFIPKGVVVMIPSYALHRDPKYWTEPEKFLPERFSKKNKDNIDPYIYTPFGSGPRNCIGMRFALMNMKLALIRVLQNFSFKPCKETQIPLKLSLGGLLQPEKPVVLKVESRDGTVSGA

[4] = molecular target: Melanocortin receptor 5 (Homo sapiens, UniProt P33032); format: cell membranes, HEK293, Membrane; note: in other assays of this panel Not Active means under 50% inhibition at 10 µM
Chain of Melanocortin receptor 5 (P33032 whole entry): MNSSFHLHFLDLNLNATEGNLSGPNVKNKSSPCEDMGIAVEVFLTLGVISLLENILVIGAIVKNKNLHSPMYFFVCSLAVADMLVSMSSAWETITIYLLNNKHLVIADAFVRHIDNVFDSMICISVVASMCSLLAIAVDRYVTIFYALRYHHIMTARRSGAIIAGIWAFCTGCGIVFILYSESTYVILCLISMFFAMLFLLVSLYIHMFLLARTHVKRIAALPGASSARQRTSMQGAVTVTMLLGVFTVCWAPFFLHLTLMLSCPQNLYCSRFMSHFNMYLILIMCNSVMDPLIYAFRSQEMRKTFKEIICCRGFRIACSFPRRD

[5] = molecular target: Vasopressin V1a receptor (Homo sapiens, UniProt P37288); format: cell membranes, Membrane; conditions: hek293; note: in other assays of this panel Not Active means under 50% inhibition at 10 µM
Chain of Vasopressin V1a receptor (P37288 whole entry): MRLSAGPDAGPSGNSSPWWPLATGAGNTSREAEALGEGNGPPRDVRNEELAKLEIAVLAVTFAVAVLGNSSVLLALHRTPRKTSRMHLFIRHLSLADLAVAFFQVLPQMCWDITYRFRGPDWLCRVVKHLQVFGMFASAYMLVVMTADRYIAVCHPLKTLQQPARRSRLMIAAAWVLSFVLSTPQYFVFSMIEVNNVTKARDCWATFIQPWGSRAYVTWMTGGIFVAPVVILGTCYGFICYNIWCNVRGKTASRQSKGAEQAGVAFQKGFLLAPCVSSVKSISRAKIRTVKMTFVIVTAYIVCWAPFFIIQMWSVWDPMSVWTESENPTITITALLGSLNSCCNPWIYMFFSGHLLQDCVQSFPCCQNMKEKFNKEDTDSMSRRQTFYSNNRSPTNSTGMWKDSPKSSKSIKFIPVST

[6] = molecular target: T3, Nitric oxide synthase, inducible (Mus musculus, UniProt P29477); parameters: species or system Escherichia coli
T3 sequence (P29477 whole entry): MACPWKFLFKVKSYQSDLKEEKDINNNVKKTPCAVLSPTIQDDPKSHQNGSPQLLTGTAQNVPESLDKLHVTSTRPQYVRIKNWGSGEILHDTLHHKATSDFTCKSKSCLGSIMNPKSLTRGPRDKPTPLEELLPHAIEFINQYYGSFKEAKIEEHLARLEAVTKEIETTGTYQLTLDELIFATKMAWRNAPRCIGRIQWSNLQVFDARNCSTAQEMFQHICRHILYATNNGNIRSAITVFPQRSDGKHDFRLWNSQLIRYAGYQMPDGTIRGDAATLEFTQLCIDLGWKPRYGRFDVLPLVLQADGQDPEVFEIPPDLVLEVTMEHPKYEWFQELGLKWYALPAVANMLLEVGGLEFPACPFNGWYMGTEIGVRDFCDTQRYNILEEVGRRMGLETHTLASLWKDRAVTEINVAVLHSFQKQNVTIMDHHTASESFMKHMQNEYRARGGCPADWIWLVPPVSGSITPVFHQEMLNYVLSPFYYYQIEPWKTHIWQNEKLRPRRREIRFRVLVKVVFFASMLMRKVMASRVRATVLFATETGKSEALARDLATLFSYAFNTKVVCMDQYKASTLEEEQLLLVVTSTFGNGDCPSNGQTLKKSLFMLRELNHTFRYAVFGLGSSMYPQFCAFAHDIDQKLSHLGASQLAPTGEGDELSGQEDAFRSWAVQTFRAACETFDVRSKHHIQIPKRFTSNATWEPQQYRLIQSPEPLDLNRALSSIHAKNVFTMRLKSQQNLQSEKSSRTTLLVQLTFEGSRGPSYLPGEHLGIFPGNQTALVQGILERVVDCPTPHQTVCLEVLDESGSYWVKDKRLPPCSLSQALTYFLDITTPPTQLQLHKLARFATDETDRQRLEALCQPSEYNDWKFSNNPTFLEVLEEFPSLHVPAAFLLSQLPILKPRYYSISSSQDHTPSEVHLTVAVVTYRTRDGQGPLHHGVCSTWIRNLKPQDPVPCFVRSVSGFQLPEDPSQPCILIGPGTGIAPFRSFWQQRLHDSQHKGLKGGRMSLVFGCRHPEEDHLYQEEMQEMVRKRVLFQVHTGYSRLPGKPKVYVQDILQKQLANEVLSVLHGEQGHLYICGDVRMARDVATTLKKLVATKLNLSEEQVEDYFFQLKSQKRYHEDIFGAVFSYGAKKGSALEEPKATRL

[7] = molecular target: Vascular endothelial growth factor receptor 1 (Homo sapiens, UniProt P17948); format: cell-based; conditions: huvec; note: in other assays of this panel Not Active means under 50% inhibition at 10 µM
Chain of Vascular endothelial growth factor receptor 1 (P17948 whole entry): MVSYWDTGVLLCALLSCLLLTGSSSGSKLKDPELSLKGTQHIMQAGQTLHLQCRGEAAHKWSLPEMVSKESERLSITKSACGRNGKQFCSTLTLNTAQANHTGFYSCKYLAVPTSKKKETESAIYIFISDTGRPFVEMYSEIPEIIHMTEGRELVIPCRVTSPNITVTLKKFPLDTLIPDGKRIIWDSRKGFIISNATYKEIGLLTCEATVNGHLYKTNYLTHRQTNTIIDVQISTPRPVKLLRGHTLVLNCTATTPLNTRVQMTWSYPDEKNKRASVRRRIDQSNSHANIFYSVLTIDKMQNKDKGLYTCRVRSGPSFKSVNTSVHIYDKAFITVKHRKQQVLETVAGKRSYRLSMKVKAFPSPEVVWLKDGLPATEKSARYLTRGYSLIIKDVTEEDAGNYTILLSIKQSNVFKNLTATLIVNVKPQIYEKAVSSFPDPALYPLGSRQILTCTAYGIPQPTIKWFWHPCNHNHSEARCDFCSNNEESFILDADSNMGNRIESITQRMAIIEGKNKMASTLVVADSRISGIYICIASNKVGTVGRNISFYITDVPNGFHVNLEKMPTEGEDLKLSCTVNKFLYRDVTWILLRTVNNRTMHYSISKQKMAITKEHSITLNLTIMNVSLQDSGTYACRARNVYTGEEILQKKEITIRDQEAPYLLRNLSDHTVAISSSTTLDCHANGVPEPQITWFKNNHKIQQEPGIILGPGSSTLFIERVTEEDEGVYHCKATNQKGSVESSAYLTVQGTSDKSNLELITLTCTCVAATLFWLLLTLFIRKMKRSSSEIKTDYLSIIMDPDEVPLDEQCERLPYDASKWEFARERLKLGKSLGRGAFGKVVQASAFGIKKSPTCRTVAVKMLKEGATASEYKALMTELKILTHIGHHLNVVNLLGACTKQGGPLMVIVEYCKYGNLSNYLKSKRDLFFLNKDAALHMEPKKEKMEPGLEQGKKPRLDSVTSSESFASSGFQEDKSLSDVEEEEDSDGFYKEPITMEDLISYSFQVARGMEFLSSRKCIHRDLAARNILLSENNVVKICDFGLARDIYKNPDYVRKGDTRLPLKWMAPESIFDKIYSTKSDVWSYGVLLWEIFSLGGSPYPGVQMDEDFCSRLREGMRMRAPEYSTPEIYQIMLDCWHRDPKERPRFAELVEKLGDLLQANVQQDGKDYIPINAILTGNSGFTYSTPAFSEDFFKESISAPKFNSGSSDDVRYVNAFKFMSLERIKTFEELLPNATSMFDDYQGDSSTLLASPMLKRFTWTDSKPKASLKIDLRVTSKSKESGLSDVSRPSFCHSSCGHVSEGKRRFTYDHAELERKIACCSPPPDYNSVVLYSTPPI

Row | Compound | IC50 [1] | IC50 [2] | IC50 [3] | Ki [3] | IC50 ([4]; hek293) | IC50 [5] | IC50 [6] | IC50 [7] | IC50 ([1]; read-out: IC50) [µM] | Ki ([1]; read-out: Ki) [µM] | IC50 ([4]; read-out: IC50) [µM] | Ki ([4]; read-out: Ki) [µM]
1 | CCCCC(=O)N(Cc1ccc(-c2ccccc2-c2nnn[nH]2)cc1)[C@H](C(=O)O)C(C)C | Not Active | Not Active | Not Active | Not Active | Not Active | Not Active | Not Active | Not Active | – | – | – | –
2 | O=C(O)COc1ccc(C(=O)c2cccs2)c(Cl)c1Cl | Not Active | Not Active | Not Active | Not Active | Not Active | Not Active | Not Active | Not Active | – | – | – | –
3 | CN1[C@@H]2CC[C@H]1C[C@@H](OC(c1ccccc1)c1ccccc1)C2 [BENZTROPINE] | Not Active | Not Active | Not Active | Not Active | Not Active | Not Active | Not Active | Not Active | – | – | – | –
4 | C[C@@](Cc1ccc(O)c(O)c1)(NN)C(=O)O.O [CARBIDOPA] | Not Active | Not Active | Not Active | Not Active | Not Active | Not Active | Not Active | Not Active | – | – | – | –
5 | CN1CCN(C2=Nc3cc(Cl)ccc3Nc3ccccc32)CC1 [CLOZAPINE] | Not Active | Not Active | – | – | Not Active | Not Active | Not Active | Not Active | – | – | – | –
6 | CC(C)NC[C@@H](O)COc1cccc2ccccc12 [DEXPROPRANOLOL] | Not Active | Not Active | Not Active | Not Active | Not Active | Not Active | Not Active | Not Active | – | – | – | –
7 | CC(C)NC[C@H](O)COc1cccc2ccccc12 [LEVOPROPRANOLOL] | Not Active | Not Active | Not Active | Not Active | Not Active | Not Active | Not Active | Not Active | – | – | – | –
8 | O=C(O)CCCCC1CCSS1 (stereo not drawn) [LIPOIC ACID, ALPHA] | Not Active | Not Active | Not Active | Not Active | Not Active | Not Active | Not Active | Not Active | – | – | – | –
9 | CN(C)C(=O)C(CCN1CCC(O)(c2ccc(Cl)cc2)CC1)(c1ccccc1)c1ccccc1 [LOPERAMIDE] | Not Active | Not Active | Not Active | Not Active | Not Active | Not Active | Not Active | Not Active | – | – | – | –
10 | Clc1ccc(COC(Cn2ccnc2)c2ccc(Cl)cc2Cl)c(Cl)c1 (centres undefined) [MICONAZOLE] | – | Not Active | – | – | – | Not Active | Not Active | Not Active | 14.9 | 1.94 | 22.6 | 21.2
11 | Oc1ccc2c3c1O[C@H]1[C@@H](O)CC[C@@]4(O)[C@@H](C2)N(CC2CCC2)CC[C@]314 [NALBUPHINE] | Not Active | Not Active | – | – | Not Active | Not Active | Not Active | Not Active | – | – | – | –
